1 molecule from patent publication US7015218B1, “Amide compounds and medicinal use thereof” (Mitsubishi Pharma Corporation, priority 1999, dated 2006) can be followed below.

The test system of the data set is DBA/1J mouse. Put plainly: Type II collagen induced arthritis in DBA/1J mouse. It counts as in vivo. How it is done: An emulsion was prepared by mixing bovine type II collagen (100–200 μg, purchased from Collagen Gizyutsu Kensyukai) with Freund's complete adjuvant (Sigma) containing dead tubercle bacillus H37Ra was given to 6–7 week-old male DBA/1J mice (Charles River Japan) subcutaneously from the root of the tail for immunization twice at 3 week intervals, thereby developing arthritis. The compound of the present invention or a pharmaceutically acceptable salt thereof was suspended or dissolved in 0.5% hydroxypropylmethylcellulose and orally administered repeatedly at the dose of 0.01–100 mg/kg body weight using an oral sound for 6 weeks from the first immunization. This model was evaluated for the symptoms of arthritis in the four limbs according to the following criteria in 0 to 4 scores. The arthritis score of each mouse was expressed by the total of the scores of the four limbs (maximum:16 points), and when the total score was 1 or more, the onset of arthritis was acknowledged.
The thickness of the four limbs of the mouse was measured with vernier calipers and the total score of the four limbs was used as an index of arthritis. Using a soft X-ray photography (OHMIC co.), the four limbs were X rayed to evaluate the level of destruction of the joints. […]

Regarding `Cc1c(C(=O)Nc2ccc(C(F)(F)F)cc2)cnn1-c1ccc(F)cc1` [1-(4-fluorophenyl)-N-(4-trifluoromethylphenyl)-5-methylpyrazole-4-carboxamide], where the note is “repeat oral administration at 10 mg/kg body weight”, the “improvement of severity of developed arthritis, swelling of four limbs or joint destruction” value is reported as “did not improve”. For the same molecule, the death incidence result (repeat oral administration at 30 mg/kg body weight) was “death incidence was confirmed”.
